For the assay, the target named is T1, delphinium-derived glycosyltransferase (SEQ ID NO: 3), recombinant (Delphinium grandiflorum, UniProt E3W9M3).
T1 construct: made in house; host or cells: Escherichia coli JM109 (crude lysate supernatant)
T1 sequence (E3W9M3 29-505 limits assumed): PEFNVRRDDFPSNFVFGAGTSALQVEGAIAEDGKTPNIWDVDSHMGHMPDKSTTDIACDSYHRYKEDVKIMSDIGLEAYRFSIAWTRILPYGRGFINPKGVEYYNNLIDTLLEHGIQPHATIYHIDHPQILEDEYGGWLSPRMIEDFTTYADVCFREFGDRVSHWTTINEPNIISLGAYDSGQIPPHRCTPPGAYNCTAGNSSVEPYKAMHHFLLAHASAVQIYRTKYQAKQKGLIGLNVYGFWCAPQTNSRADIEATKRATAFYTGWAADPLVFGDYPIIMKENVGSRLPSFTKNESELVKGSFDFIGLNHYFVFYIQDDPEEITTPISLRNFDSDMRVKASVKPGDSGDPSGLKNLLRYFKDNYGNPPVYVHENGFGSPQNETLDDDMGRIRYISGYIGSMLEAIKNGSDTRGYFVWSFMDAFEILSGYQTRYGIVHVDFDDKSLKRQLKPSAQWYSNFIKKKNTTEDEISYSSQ
The assay can be described thus: Glycosyl transfer reaction with delphinium-derived glycosyltransferase gene expressed in Escherichia coli. It is filed as biochemical, delphinium (Delphinium grandiflorum L.). As to conditions: recombinant enzyme from E. coli, cyanidin 3-O-β-glucoside as sugar receptor. How it is done: PCR was performed using a sense primer (“ATGCCCGAATTTAATGTCAG” (SEQ ID NO: 19)) designed so as to add a methionine residue for the initiation of translation to a sequence from which 28 amino acid residues at the N-terminus predicted as corresponding to vacuolar transfer signals of DgVA7GT had been removed and an antisense primer (“CTG TGA AGA GTA CGA TAT C” (SEQ ID NO: 20)) designed so as to lack a stop codon. The PCR product was ligated to a pTrcHis2-TOPO vector (Invitrogen) using a pTrcHis2-TOPO TA expression Kit (Invitrogen), followed by transformation of the Escherichia coli JM109 strain. DNA was extracted from the transformed Escherichia coli and the DNA nucleotide sequence was analyzed in the above manner. Accordingly, the direction of cDNA introduction and the nonoccurrence of a PCR-induced nucleotide substitution were confirmed.
The transformed Escherichia coli was seeded on an LB medium containing […] ampicillin (5 ml), followed by shake culture at 30° C. for 4 hours. Then, IPTG was added thereto to result in 1 mM, followed by shake culture at 16° C. for 2 hours. The cultured Escherichia coli was harvested via centrifugation at 1,800×g. The medium was removed therefrom. A 0.1 M citric acid buffer (pH 5.6) (150 μl) was added thereto, followed by sufficient mixing. […]

Consider `COc1cc(C(=O)OC2OC(CO)C(O)C(O)C2O)ccc1O` (centres unmarked), for which the “Sugar donor function with recombinant delphinium-derived glycosyltransferase (reaction product)” value is reported as “capable of transferring glucose to the 7 position of the anthocyanin skeleton using vanillyl glucose as a sugar donor”.
For `O=C(OC1OC(CO)C(O)C(O)C1O)c1ccc(O)cc1` (stereo not drawn) [1-O-β-p-hydroxybenzoyl glucose] the value was “cyanidin 3,7-diglucoside formed as a result of transfer of glucose to a hydroxyl group at the 7 position of cyanidin 3-glucoside”.

These data come from patent US8722868B2, “Glycosyltransferase, novel glycosyltransferase gene, and novel sugar donor compound” (National University Corporation Tokyo University of …, priority 2009, dated 2014).
